Source: PubChem BioAssay (NCI)
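Each compound was tested at five concentrations against cells in 96-well plates for 48 hours. Definition used: TGI = concentration required for complete inhibition of growth.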

How the values were obtained:
Assay in all cases: NCI-60 cell line screen, 48 h
MDA-MB-435 = system: MDA-MB-435
HCT-15 colon = system: HCT-15 colon
ACHN renal = system: ACHN renal
EKVX NSCLC = system: EKVX NSCLC
MDA-MB-231 breast = system: MDA-MB-231 breast
SNB-19 CNS = system: SNB-19 CNS
SK-MEL-2 melanoma = system: SK-MEL-2 melanoma
UO-31 renal = system: UO-31 renal
NCI-H23 lung = system: NCI-H23 lung
UACC-257 melanoma = system: UACC-257 melanoma
SK-MEL-28 melanoma = system: SK-MEL-28 melanoma
COLO 205 colon = system: COLO 205 colon
RPMI-8226 leukemia = system: RPMI-8226 leukemia
NCI-H522 lung = system: NCI-H522 lung
SW-620 colon = system: SW-620 colon
PC-3 prostate = system: PC-3 prostate
SK-MEL-5 melanoma = system: SK-MEL-5 melanoma
KM12 colon = system: KM12 colon
MCF7 breast = system: MCF7 breast
HOP-62 NSCLC = system: HOP-62 NSCLC

Row | Structure (SMILES) | TGI (MDA-MB-435) | TGI (HCT-15 colon) | TGI (ACHN renal) | TGI (EKVX NSCLC) | TGI (MDA-MB-231 breast) | TGI (SNB-19 CNS) | TGI (SK-MEL-2 melanoma) | TGI (UO-31 renal) | TGI (NCI-H23 lung) | TGI (UACC-257 melanoma) | TGI (SK-MEL-28 melanoma) | TGI (COLO 205 colon) | TGI (RPMI-8226 leukemia) | TGI (NCI-H522 lung) | TGI (SW-620 colon) | TGI (PC-3 prostate) | TGI (SK-MEL-5 melanoma) | TGI (KM12 colon) | TGI (MCF7 breast) | TGI (HOP-62 NSCLC)
1 | O=C1OCC2(CO1)CC1C=CC2C1 (stereo not given) | > 100 µM | > 100 µM | > 100 µM | > 100 µM | > 100 µM | > 100 µM | > 100 µM | > 100 µM | > 100 µM | > 100 µM | > 100 µM | > 100 µM | > 100 µM | > 100 µM | > 100 µM | > 100 µM | > 100 µM | > 100 µM | > 100 µM | > 100 µM
2 | CCCCCCCC/C=C\CCCCCCC(F)C(=O)O (stereo not given) | > 12.5 µM | > 12.5 µM | > 12.5 µM | > 12.5 µM | > 12.5 µM | > 12.5 µM | > 12.5 µM | > 12.5 µM | > 12.5 µM | > 12.5 µM | > 12.5 µM | > 12.5 µM | > 12.5 µM | > 12.5 µM | > 12.5 µM | > 12.5 µM | > 12.5 µM | > 12.5 µM | > 12.5 µM | > 12.5 µM
3 | O=C1CCCC2=C(N1)C(=O)C=CC2=O | 32.7 µM | 62.6 µM | 55.1 µM | 53 µM | 33.5 µM | 61 µM | 60.4 µM | 57.9 µM | 56.7 µM | 61.1 µM | 60.4 µM | 33.3 µM | 60.2 µM | 34.8 µM | 37.9 µM | 29.9 µM | 57.1 µM | 36.7 µM | 38.4 µM | 61.9 µM
4 | O=c1[nH]c(-c2cccc(F)c2)nc2ccccc12 | > 100 µM | > 100 µM | > 68.7 µM | > 100 µM | > 65.9 µM | 47.2 µM | > 100 µM | > 67.9 µM | > 65.8 µM | > 100 µM | > 100 µM | > 100 µM | > 100 µM | > 100 µM | > 100 µM | > 100 µM | > 100 µM | > 100 µM | > 100 µM | 52.4 µM
5 | CCCCCC(O)[C@H]1C(=O)C[C@@H](O[Si](C)(C)C(C)(C)C)[C@@H]1/C=C/CCOCc1ccccc1 (stereo not given in full) | 22.4 µM | 27.4 µM | 26.2 µM | 35.2 µM | 61.8 µM | 28.5 µM | 31.2 µM | 27.5 µM | 33.3 µM | 26.4 µM | 31 µM | 41.5 µM | > 44.8 µM | 15 µM | 41.4 µM | 30.9 µM | 37.9 µM | 17.2 µM | > 54.7 µM | 34.1 µM
6 | COC(=O)c1ccc(N=NN(C)COc2ccc(C#N)cc2)cc1 | > 100 µM | > 100 µM | > 100 µM | > 100 µM | > 100 µM | > 100 µM | > 100 µM | > 100 µM | > 100 µM | > 100 µM | > 100 µM | > 100 µM | > 100 µM | > 100 µM | > 100 µM | > 100 µM | > 100 µM | > 100 µM | > 100 µM | > 100 µM
7 | CCOC(=O)c1sc2nc(SC)nc3c2c1N=CN3c1ccccc1Cl | > 100 µM | > 100 µM | 55.3 µM | > 100 µM | > 100 µM | > 100 µM | > 100 µM | > 100 µM | > 100 µM | > 100 µM | > 100 µM | > 100 µM | > 100 µM | > 100 µM | > 100 µM | > 100 µM | > 100 µM | > 100 µM | > 100 µM | 32.6 µM
8 | Cc1cc2c(c(C=Nc3ccc([N+](=O)[O-])cc3)c1)OC1(C=C2)Oc2ccccc2C(=O)N1C (stereo not given) | > 100 µM | 39.4 µM | 50.5 µM | 43.6 µM | 45 µM | > 100 µM | 57.9 µM | 42.3 µM | 35.7 µM | 42.4 µM | 44.8 µM | 54.3 µM | 93.1 µM | > 100 µM | 81.1 µM | 44.4 µM | > 100 µM | 46.2 µM | 46 µM | 82.9 µM
9 | O=C(c1cccc(OCc2ccccc2)c1OCc1ccccc1)N1CCSC1=S | > 100 µM | > 100 µM | > 100 µM | > 100 µM | > 78.2 µM | > 100 µM | > 75.4 µM | 97.2 µM | 74.9 µM | > 87.7 µM | > 100 µM | 26.4 µM | 43 µM | > 58.1 µM | > 100 µM | > 100 µM | 31.7 µM | 36.9 µM | > 100 µM | > 100 µM
